{
  "source": "paper PMC9127750",
  "about": "“Structure-based design of CDC42 effector interaction inhibitors for the treatment of cancer” (Cell reports, 2022)",
  "tested_on": "WM3248 melanoma cells, 486 antibodies",
  "experiment": "Reverse phase protein arrays (RPPA)",
  "type": "cell-based, Human",
  "source_text": "Pellets were snap frozen in liquid nitrogen and shipped to MD Anderson Cancer Center core RPPA facility for RPPA analysis (Table S5). Three biological replicates for each sample were generated.\nNomenclatures on the RPPA heatmaps: name_of_antibody.species_of_antibody.status_of_antibody. V - antibody validated; C - validation of antibody in progress; Q - antibody nonspecific; E – under evaluation; antibodies raised in M - mouse, G - goat, R - rabbit, or T - rat.",
  "key": {"[1]": {"conditions": "Norm_5: replicates 1-3 and Average, relative to 0"}, "[2]": {"conditions": "Norm_5, replicates 1-3 and Average, relative to Norm_0"}},
  "note": "Where “and” joins values, the source holds several entries; their conditions need not be identical. Equal entries are not always repeated.",
  "data": [
    {"smiles": "CN(C)c1cccc(Nc2cc(-c3ccccc3)nc(C3CCNCC3)n2)c1", "note": "[ARN22089, N1,N1-dimethyl-N3-(6-phenyl-2-(piperidin-4-yl)pyrimidin-4-yl)benzene-1,3-diamine]", "values": [
      {"measurement": "RSK1.R.V normalized RPPA signal", "setting": "[1]", "result": "1.085 and 0.967 and 1.032"},
      {"measurement": "RSK.R.C normalized RPPA signal", "setting": "[1]", "result": "1.076 and 1.100"},
      {"measurement": "Rab11.R.C normalized RPPA signal", "setting": "[1]", "result": "1.016 and 1.047 and 1.025 and 1.029"},
      {"measurement": "Rab25.R.V normalized RPPA signal", "setting": "[1]", "result": "0.979 and 1.011 and 0.966 and 0.985"},
      {"measurement": "Rad17_pS645.R.V normalized RPPA signal", "setting": "[1]", "result": "0.979 and 0.856 and 0.975"},
      {"measurement": "Rad23A.R.C normalized RPPA signal", "setting": "[1]", "result": "0.977 and 1.149 and 0.762 and 0.963"},
      {"measurement": "Rad50.R.V normalized RPPA signal", "setting": "[1]", "result": "1.246 and 0.924 and 1.080"},
      {"measurement": "Rad51.R.C normalized RPPA signal", "setting": "[1]", "result": "0.775 and 0.822 and 0.890 and 0.829"},
      {"measurement": "Raptor.R.V normalized RPPA signal", "setting": "[1]", "result": "0.903 and 1.058 and 0.970"},
      {"measurement": "Rb.M.Q normalized RPPA signal", "setting": "[1]", "result": "0.962 and 0.918 and 0.956 and 0.945"},
      {"measurement": "Rb_pS807_S811.R.V normalized RPPA signal", "setting": "[1]", "result": "0.882 and 1.011 and 0.977"},
      {"measurement": "Rheb.M.C normalized RPPA signal", "setting": "[1]", "result": "1.004 and 1.059 and 1.001 and 1.021"},
      {"measurement": "Rictor.R.C normalized RPPA signal", "setting": "[1]", "result": "1.004 and 0.961 and 1.013"},
      {"measurement": "Rictor_pT1135.R.V normalized RPPA signal", "setting": "[1]", "result": "1.047 and 0.998 and 1.024 and 1.023"},
      {"measurement": "S6.M.V normalized RPPA signal", "setting": "[1]", "result": "1.120 and 0.958 and 1.452"},
      {"measurement": "S6_pS235_S236.R.V normalized RPPA signal", "setting": "[1]", "result": "1.127 and 0.835 and 1.012 and 0.991"},
      {"measurement": "S6_pS240_S244.R.V normalized RPPA signal", "setting": "[1]", "result": "0.956 and 0.805 and 0.753 and 0.838"},
      {"measurement": "SCD.M.V normalized RPPA signal", "setting": "[1]", "result": "0.971 and 0.991 and 1.085 and 1.016"},
      {"measurement": "SDHA.R.V normalized RPPA signal", "setting": "[1]", "result": "1.033 and 1.016 and 1.031"},
      {"measurement": "SF2.R.V normalized RPPA signal", "setting": "[1]", "result": "0.946 and 0.943 and 1.034 and 0.974"},
      {"measurement": "SFRP1.R.V normalized RPPA signal", "setting": "[1]", "result": "0.931 and 0.917 and 0.927 and 0.925"},
      {"measurement": "SGK1.R.V normalized RPPA signal", "setting": "[1]", "result": "1.122 and 0.983 and 1.065"},
      {"measurement": "SGK3.R.V normalized RPPA signal", "setting": "[1]", "result": "0.809 and 0.879 and 0.966 and 0.885"},
      {"measurement": "SHP2.R.V normalized RPPA signal", "setting": "[1]", "result": "0.965 and 0.955 and 0.959 and 0.960"},
      {"measurement": "SHP.2_pY542.R.C normalized RPPA signal", "setting": "[1]", "result": "1.007 and 1.103 and 0.995 and 1.035"},
      {"measurement": "SIRPαR.V normalized RPPA signal", "setting": "[1]", "result": "0.995 and 0.945 and 0.836 and 0.925"},
      {"measurement": "SLC1A5.R.C normalized RPPA signal", "setting": "[1]", "result": "1.053 and 0.972"},
      {"measurement": "SOD1.M.V normalized RPPA signal", "setting": "[1]", "result": "0.959 and 1.035 and 0.980"},
      {"measurement": "SOD2.R.V normalized RPPA signal", "setting": "[1]", "result": "1.012 and 1.026 and 0.995"},
      {"measurement": "SOX7.R.V normalized RPPA signal", "setting": "[1]", "result": "0.939 and 1.028 and 0.910 and 0.959"},
      {"measurement": "STING.R.V normalized RPPA signal", "setting": "[1]", "result": "0.946 and 1.077 and 1.149 and 1.057"},
      {"measurement": "Shc_pY317.R.C normalized RPPA signal", "setting": "[1]", "result": "0.575 and 1.701 and 1.009"},
      {"measurement": "Slfn11.G.C normalized RPPA signal", "setting": "[1]", "result": "0.898 and 1.001 and 0.887 and 0.929"},
      {"measurement": "Smac.M.Q normalized RPPA signal", "setting": "[1]", "result": "0.860 and 1.033 and 0.824 and 0.905"},
      {"measurement": "Smad1.R.V normalized RPPA signal", "setting": "[1]", "result": "1.028 and 1.016 and 1.057 and 1.034"},
      {"measurement": "Smad3.R.V normalized RPPA signal", "setting": "[1]", "result": "1.027 and 1.110 and 0.885 and 1.007"},
      {"measurement": "Smad4.R.V normalized RPPA signal", "setting": "[1]", "result": "0.953 and 0.919 and 1.129 and 1.000"},
      {"measurement": "Snail.M.Q normalized RPPA signal", "setting": "[1]", "result": "0.807 and 0.836 and 0.899 and 0.847"},
      {"measurement": "Sox2.R.V normalized RPPA signal", "setting": "[1]", "result": "1.113 and 0.987 and 0.935 and 1.012"},
      {"measurement": "Sox17.R.V normalized RPPA signal", "setting": "[1]", "result": "0.914 and 0.904 and 1.000 and 0.939"},
      {"measurement": "Src.M.V normalized RPPA signal", "setting": "[1]", "result": "0.923 and 1.011 and 1.048 and 0.994"},
      {"measurement": "Src_pY416.R.V normalized RPPA signal", "setting": "[1]", "result": "0.930 and 0.928 and 0.956"},
      {"measurement": "Src_pY527.R.V normalized RPPA signal", "setting": "[1]", "result": "1.055 and 1.158 and 1.605 and 1.273"},
      {"measurement": "Stat1_pY701.R.V normalized RPPA signal", "setting": "[1]", "result": "0.914 and 0.929 and 0.961 and 0.935"},
      {"measurement": "Stat3.R.C normalized RPPA signal", "setting": "[1]", "result": "0.970 and 0.910 and 0.975"},
      {"measurement": "Stat3_pY705.R.C normalized RPPA signal", "setting": "[1]", "result": "1.031 and 0.914 and 0.997 and 0.980"},
      {"measurement": "Stat5a.R.V normalized RPPA signal", "setting": "[1]", "result": "0.989 and 1.022 and 1.028 and 1.013"},
      {"measurement": "Stathmin.1.R.V normalized RPPA signal", "setting": "[1]", "result": "1.025 and 1.018 and 0.975 and 1.006"},
      {"measurement": "Syk.M.V normalized RPPA signal", "setting": "[1]", "result": "0.694 and 0.899 and 1.030 and 0.874"},
      {"measurement": "Synaptophysin.R.C normalized RPPA signal", "setting": "[1]", "result": "0.918 and 0.774 and 1.022 and 0.904"},
      {"measurement": "TAZ.R.V normalized RPPA signal", "setting": "[1]", "result": "0.970 and 1.124 and 0.886 and 0.994"},
      {"measurement": "TEAD.R.C normalized RPPA signal", "setting": "[1]", "result": "0.913 and 0.942 and 0.954 and 0.936"},
      {"measurement": "TFAM.R.V normalized RPPA signal", "setting": "[1]", "result": "0.945 and 1.024 and 1.101 and 1.023"},
      {"measurement": "TFRC.R.V normalized RPPA signal", "setting": "[1]", "result": "0.905 and 0.974 and 0.942 and 0.940"},
      {"measurement": "TIGAR.R.V normalized RPPA signal", "setting": "[1]", "result": "1.046 and 0.999 and 1.028"},
      {"measurement": "TRAP1.M.V normalized RPPA signal", "setting": "[1]", "result": "0.917 and 0.980 and 0.909 and 0.935"},
      {"measurement": "TRIM24.R.C normalized RPPA signal", "setting": "[1]", "result": "0.917 and 0.931 and 1.013 and 0.954"},
      {"measurement": "TRIM25.R.C normalized RPPA signal", "setting": "[1]", "result": "0.925 and 1.108 and 1.361 and 1.131"},
      {"measurement": "TRIP13.R.V normalized RPPA signal", "setting": "[1]", "result": "0.993 and 0.918 and 0.936"},
      {"measurement": "Tau.M.C normalized RPPA signal", "setting": "[1]", "result": "1.003 and 0.977 and 1.007"},
      {"measurement": "Transglutaminase.M.V normalized RPPA signal", "setting": "[1]", "result": "1.143 and 1.434 and 0.745 and 1.107"},
      {"measurement": "A.Raf.R.V RPPA signal, normalized", "setting": "[2]", "result": "1.063 and 0.973 and 1.128 and 1.055"},
      {"measurement": "A.Raf_pS299.R.C RPPA signal, normalized", "setting": "[2]", "result": "0.910 and 0.929 and 0.996 and 0.945"},
      {"measurement": "ACC1.R.C RPPA signal, normalized", "setting": "[2]", "result": "1.079 and 1.112"},
      {"measurement": "ACC_pS79.R.V RPPA signal, normalized", "setting": "[2]", "result": "0.996 and 1.006 and 1.005 and 1.002"},
      {"measurement": "ACLY_pS455.R.V RPPA signal, normalized", "setting": "[2]", "result": "0.993 and 1.161 and 0.844 and 0.999"},
      {"measurement": "ACSL1.R.V RPPA signal, normalized", "setting": "[2]", "result": "0.995 and 0.806 and 0.904"},
      {"measurement": "ACVRL1.R.C RPPA signal, normalized", "setting": "[2]", "result": "0.940 and 0.993 and 0.936 and 0.956"},
      {"measurement": "ADAR1.M.V RPPA signal, normalized", "setting": "[2]", "result": "0.990 and 0.970 and 1.080 and 1.013"},
      {"measurement": "ALKBH5.R.V RPPA signal, normalized", "setting": "[2]", "result": "1.026 and 1.137 and 0.879 and 1.014"},
      {"measurement": "AMPK.a2_pS345.R.V RPPA signal, normalized", "setting": "[2]", "result": "0.974 and 1.081 and 1.055"},
      {"measurement": "AMPKa.R.C RPPA signal, normalized", "setting": "[2]", "result": 1.048},
      {"measurement": "AMPKa_pT172.R.C RPPA signal, normalized", "setting": "[2]", "result": "1.029 and 0.832 and 0.850 and 0.903"},
      {"measurement": "AR.R.V RPPA signal, normalized", "setting": "[2]", "result": "1.053 and 0.956 and 1.050 and 1.020"},
      {"measurement": "ARID1A.R.C RPPA signal, normalized", "setting": "[2]", "result": "1.008 and 1.012 and 1.065"},
      {"measurement": "ASNS.R.V RPPA signal, normalized", "setting": "[2]", "result": "1.454 and 1.206"},
      {"measurement": "ATM.R.V RPPA signal, normalized", "setting": "[2]", "result": "0.983 and 1.033 and 1.311 and 1.109"},
      {"measurement": "ATM_pS1981.R.V RPPA signal, normalized", "setting": "[2]", "result": "0.928 and 0.941 and 0.961 and 0.943"},
      {"measurement": "ATP5A.M.C RPPA signal, normalized", "setting": "[2]", "result": "1.127 and 1.377 and 0.535 and 1.013"},
      {"measurement": "ATP5H.R.V RPPA signal, normalized", "setting": "[2]", "result": "1.032 and 1.077 and 0.898 and 1.003"},
      {"measurement": "ATR.R.V RPPA signal, normalized", "setting": "[2]", "result": "0.945 and 0.970 and 0.954"}
    ]}
  ]
}
